Laboratory results as given in ChEMBL document CHEMBL6115010, “Targeting glioma with heteroaromatic alkaloids: A review of potential therapeutics” (Bioorg Med Chem, 2025).
Values after ≈ are worked out from the molar mass of the structure shown.

Experiments:
[1] = Cytotoxicity against rat ASK cells assessed as reduction in cell growth by SRB assay; type: functional; conditions: read-out: ED50 (the source's name)
[2] = Cytotoxicity against human GSC-3 cells assessed as reduction in cell viability incubated for 72 hrs by MTS assay; type: functional, cell-based; conditions: GSC-3, 72 h
[3] = Cytotoxicity against human CHG-5 cells assessed as reduction in cell viability incubated for 48 hrs by MTT assay; type: functional, cell-based; conditions: CHG-5, 48 h
[4] = Cytotoxicity against human SHG-44 cells assessed as reduction in cell viability incubated for 48 hrs by MTT assay; type: functional, cell-based; conditions: SHG-44, 48 h
U-251 [5] = assay: Cytotoxicity against human U-251MG cells assessed as reduction in cell viability incubated for 48 hrs by MTT assay; type: functional, cell-based; conditions: U-251, 48 h
CCF-STTG1 [6] = assay: Cytotoxicity against human CCF-STTG1 cells assessed as reduction in cell viability incubated for 48 hrs by MTT assay; type: functional, cell-based; conditions: CCF-STTG1, 48 h
H4 = assay: Antiproliferative activity against human H4 cells assessed as reduction in cell viability incubated for 72 hrs by Prestoblue-reagent based assay; type: functional; conditions: H4, 72 h
U-87 MG [7] = assay: Antiproliferative activity against human U-87 MG cells assessed as reduction in cell viability at 100 uM incubated for 72 hrs by Prestoblue-reagent based assay relative to control; type: functional, U-87MG ATCC
U-251 [8] = assay: Cytotoxicity against human U-251MG cells assessed as reduction in cell viability incubated for 24 hrs by MTT assay; type: functional, cell-based; conditions: U-251, 24 h
[9] = Cytotoxicity against human SHG-44 cells assessed as reduction in cell viability incubated for 24 hrs by MTT assay; type: functional, cell-based; conditions: SHG-44, 24 h
[10] = Cytotoxicity against human CHG-5 cells assessed as reduction in cell viability incubated for 24 hrs by MTT assay; type: functional, cell-based; conditions: CHG-5, 24 h
CCF-STTG1 [11] = assay: Cytotoxicity against human CCF-STTG1 cells assessed as reduction in cell viability incubated for 24 hrs by MTT assay; type: functional, cell-based; conditions: CCF-STTG1, 24 h
GAMG = assay: Antiproliferative activity against human GAMG cells assessed as reduction in cell viability incubated for 48 hrs by MTS reagent based assay; type: functional
SH-SY5Y [12] = assay: Cytotoxicity against human SH-SY5Y cells; type: functional, cell-based
SF-295 = assay: Cytotoxicity against human SF-295 cells assessed as reduction in cell growth incubated for 96 hrs by MTT assay; type: functional, cell-based; conditions: SF-295, 96 h
[13] = Cytotoxicity against human U-343MG cells assessed as reduction in cell growth incubated for 48 hrs by MTT assay; type: functional, cell-based
U-251 [14] = assay: Cytotoxicity against human U-251MG cells assessed as reduction in cell growth incubated for 48 hrs by MTT assay; type: functional, cell-based; conditions: U-251, 48 h
SH-SY5Y [15] = assay: Cytotoxicity against human SH-SY5Y cells assessed as reduction in cell growth incubated for 48 hrs by MTT assay; type: functional, cell-based
[16] = Cytotoxicity against human CHG-5 cells assessed as reduction in cell growth incubated for 48 hrs by MTT assay; type: functional, cell-based; conditions: CHG-5, 48 h
[17] = Cytotoxicity against human GL15 cells assessed as reduction in cell growth incubated for 48 hrs by MTT assay; type: functional, cell-based; conditions: GL15, 48 h
[18] = Cytotoxicity against human SHG-44 cells assessed as reduction in cell growth incubated for 48 hrs by MTT assay; type: functional, cell-based; conditions: SHG-44, 48 h
SF-268 [19] = assay: Cytotoxicity against human SF-268 cells assessed as reduction in cell viability incubated for 72 hrs by SRB assay; type: functional, cell-based; conditions: SF-268, 72 h
Hs68 = assay: Growth inhibition of human Hs68 cells measured after 72 hrs by MTT assay; type: functional
U-87 MG [20] = assay: Growth inhibition of human U-87 MG cells measured after 72 hrs by MTT assay; type: functional, U-87MG ATCC
[21] = Growth inhibition of human U373 MG cells measured after 72 hrs by MTT assay; type: functional, U-373MG ATCC
SF-268 [22] = assay: Antiproliferative activity against human SF-268 cells; type: functional, cell-based

COc1cc2c(cc1OC)-c1c3c(cc4ccnc(c14)C2=O)OCO3 [DICENTRINONE]
EC50 [1]: 10.2 µg/mL (≈ 30.4 µM)

COc1cc2c(c(Oc3ccc(CO)cc3)c1OC)C[C@H]1c3c(cc(OC)c(OC)c3-2)CCN1C
IC50 [2]: 15.2 µg/mL (≈ 31.9 µM)

CC(=O)O[C@H]1C=C[C@]23c4cc5c(cc4[C@H](OC(C)=O)N(C[C@H]2O)[C@@H]3C1)OCO5
IC50 [3]: 30.1 µM
IC50 [4]: 27.1 µM
IC50 (U-251 [5]): 17.4 µM
IC50 (CCF-STTG1 [6]): 27.1 µM

COc1cc2c(c(Oc3ccc(C=O)cc3)c1OC)C[C@H]1c3c(cc(OC)c(OC)c3-2)CCN1C
IC50 [2]: 19.2 µg/mL (≈ 40.5 µM)

CC1=NCCc2c1[nH]c1cc(O)ccc21 [HARMALOL]
IC50 (H4): 23.7 µM
inhibition at 100 µM (U-87 MG [7]): 37%

CC(=O)O[C@@H]1C2C3C[C@H]4C5=Nc6ccccc6[C@]51C[C@@H]2[N+]4([O-])[C@@H](C)[C@@H]3C=O (some centres undefined)
IC50 (U-251 [8]): 12.3 µM
IC50 [9]: 11.8 µM
IC50 [10]: 12.9 µM
IC50 (CCF-STTG1 [11]): 12.3 µM

COC(=O)N1CCc2cc(O)c(OC)c3c4c(cc1c23)C(=O)C=C(OC)C4=O
IC50 [3]: 10.8 µM
IC50 [4]: 10.8 µM
IC50 (U-251 [5]): 11.3 µM
IC50 (CCF-STTG1 [6]): 9.2 µM

O=P1(N(CCCl)CCCl)NCCCO1 (centres undefined) [CYCLOPHOSPHAMIDE ANHYDROUS]
IC50 (GAMG): 50.9 µM

N#Cc1cnc2ccccc2c1O
IC50 (SH-SY5Y [12]): 66.8 µM

COc1ccc2c3c([nH]c2c1)[C@@H](C)NCC3
inhibition at 100 µM (U-87 MG [7]): 38%

COc1cc2c(c(Oc3ccc(C=O)cc3)c1OC)-c1c(OC)c(OC)cc3ccnc(c13)C2=O
IC50 [2]: 15.5 µg/mL (≈ 32.8 µM)

CN1C(=O)C(=O)NC[C@@H]1CNc1ccc(C(=O)O)cc1
IC50 (SH-SY5Y [12]): 54.3 µM

COc1cc2c(cc1OC)[C@H](O)[C@@H]1c3c(cc4c(c3-2)OCO4)CC[N@@+]1(C)[O-]
IC50 (SF-295): 1.62 µg/mL (≈ 4.36 µM)

COc1cc2c(c(Oc3ccc(C=O)cc3)c1OC)-c1c(OC)c(OC)c(OC)c3ccnc(c13)C2=O
IC50 [2]: 16.3 µg/mL (≈ 32.5 µM)

COc1cc2c(c(Oc3ccc(C=O)cc3)c1OC)C[C@H]1c3c(c(OC)c(OC)c(OC)c3-2)CCN1C
IC50 [2]: 14.5 µg/mL (≈ 28.7 µM)

Oc1cc2c3c(c1O)c1cc4c(cc1c[n+]3CC2)OCO4
IC50 [3]: 10.2 µM
IC50 [4]: 9.4 µM
IC50 (U-251 [5]): 11.8 µM
IC50 (CCF-STTG1 [6]): 10.3 µM

CN[C@H]1C[C@H](OC)C=C[C@@]12C(=O)N(CCCC(=O)O)Cc1cc3c(cc12)OCO3
IC50 [13]: 12.2 µM
IC50 (U-251 [14]): 11.3 µM
IC50 (SH-SY5Y [15]): 13.7 µM
IC50 [16]: 12.2 µM
IC50 [17]: 11.4 µM
IC50 [18]: 10.8 µM

COc1cc2c(cc1O)[C@H](OC(C)=O)N1C[C@@H](O)[C@]23C=C[C@H](OC)C[C@@H]13
IC50 [3]: 29.4 µM
IC50 [4]: 27.1 µM
IC50 (U-251 [5]): 17.4 µM
IC50 (CCF-STTG1 [6]): 29.4 µM

CC1=NCCc2c1[nH]c1ccccc21
IC50 (H4): 33.5 µM
inhibition at 100 µM (U-87 MG [7]): 30%

COc1cc2c(cc1OC)[C@H](O)[C@@H]1c3c(cc4c(c3-2)OCO4)CCN1C
IC50 (SF-295): 1.41 µg/mL (≈ 3.97 µM)

CO[C@@H]1C=C[C@@]23c4cc5c(cc4CN(CCc4ccccc4)[C@@H]2CN(C)[C@H]3C1)OCO5
IC50 [13]: 14.6 µM
IC50 (U-251 [14]): 18.4 µM
IC50 (SH-SY5Y [15]): 15.8 µM
IC50 [16]: 17.7 µM
IC50 [17]: 18.9 µM
IC50 [18]: 15.4 µM

C/C=C(\C)[C@H](O)[C@H](C)/C=C(C)/C=C(\C)C/C(C)=C/Cc1nc(OC)c(OC)c(O)c1C
IC50 (SF-268 [19]): 30.2 µM

Cc1cc2nc3[nH]c(=O)[nH]c(=O)c3nc2cc1C [LUMICHROME]
IC50 (SH-SY5Y [12]): 75.2 µM

CC(=O)O[C@@H]1C2C3C[C@H]4C5=Nc6ccccc6[C@]51C[C@@H]2[N+]4([O-])[C@@H](C)[C@@H]3C(=O)O (some centres undefined)
IC50 (U-251 [8]): 9.7 µM
IC50 [9]: 9.2 µM
IC50 [10]: 12.1 µM
IC50 (CCF-STTG1 [11]): 11.4 µM

CO[C@@H]1C=C[C@@]23c4cc5c(cc4C(C)O[C@H]2CN(C)[C@H]3C1)OCO5 (some centres undefined)
GI50 (Hs68): 51 µM
GI50 (U-87 MG [20]): 28 µM
GI50 [21]: 1 µM

C/C=C(\C)[C@H](O)[C@H](C)/C=C(C)/C=C(\C)C/C(C)=C/Cc1nc(OC)c(OC)c(OC)c1C
IC50 (SF-268 [19]): 10 µM

CC(C)=CC[C@]12C/C=C(/C)Oc3cccc(CO)c3/C(N)=C(/C(=O)C=C1C)C2=O
IC50 (SF-268 [22]): 17.9 µM
